Here are results for nine molecules from ChEMBL document CHEMBL4190369, “Indolinone Inhibitors of ENT1 for the Treatment of Schizophrenia” (ACS Med Chem Lett, 2017).

What is called inhibition in vivo is the relative decrease from the control value, in per cent.

The subject of the experiment is Mus musculus. Kind of experiment: Anti-schizophrenic activity in mouse assessed inhibition of L-687414-induced hyperlocomotion at 30 mg/kg, ip pretreated for 15 mins followed by L-687414 addition measured at 5 mins interval for 30 mins relative to control. The experiment is classed as functional.

As to `Cc1ncc(-c2ccc3c(c2)N(c2cnc(-n4ccnc4C)cn2)C(=O)C3(C)C)cn1`, the inhibition in vivo at 30 mg/kg is 96.3%.
Regarding `Cc1ncc(-c2ccc3c(c2)N(c2cncc(N4CCCC4=O)n2)C(=O)C3(C)C)cn1`, the inhibition in vivo at 30 mg/kg is 87.8%.
For the molecule `Cc1ncc(-c2ccc3c(c2)N(c2ccc4c(n2)N(C)C(=O)C4(C)C)C(=O)C3(C)C)cn1`, the inhibition in vivo at 30 mg/kg turned out to be 99.5%.
`Cc1ncc(-c2ccc3c(c2)N(c2cnc(C)c(N4CCOC4=O)n2)C(=O)C3(C)C)cn1`: the inhibition in vivo at 30 mg/kg was found to be 89.7%.
As for `Cc1ncc(-c2ccc3c(c2)N(c2cncc(N4CCOCC4)n2)C(=O)C3(C)C)cn1`, the inhibition in vivo at 30 mg/kg is 90%.
As to `Cc1ncc(-c2ccc3c(c2)N(c2ccc4c(c2)N(C)C(=O)CO4)C(=O)C3(C)C)cn1`, the inhibition in vivo at 30 mg/kg was 93.8%.
Under `Cc1ncc(-c2ccc3c(c2)N(c2cncc(N4CCOC4=O)n2)C(=O)C3(C)C)cn1` stands 87.1%; under `Cc1ncc(-c2ccc3c(c2)N(c2cnc4c(c2)C(C)(C)C(=O)N4C)C(=O)C3(C)C)cn1`, 93.5%; under `Cc1ncc(-c2ccc3c(c2)N(c2cnc(C)c(N4CCOCC4)n2)C(=O)C3(C)C)cn1`, 88.8%.
